Source: patent publication US4945171A, “Xanthene dyes having a fused (C) benzo ring” (Molecular Probes, Inc., priority 1987, dated 1990)

Assays:
[1] = fluorescence excitation/emission and quantum yield of benzo[c]xanthene dyes; assay type: physicochemical; conditions: for FLUORESCENCE, ACID EMIT / FLUORESCENCE, ACID EXCITE: acid form; for FLUORESCENCE, BASE EMIT / FLUORESCENCE, BASE EXCITE: base form; for APPROX. QY. (quantum yield): relative to fluorescein or sulforhodamine 101
Text: Fluorescence data was obtained on a Perkin-Elmer Model 650-40 Fluorescence Spectrophotometer with a Perkin-Elmer/Hitachi 057 X-Y Recorder using a tenfold dilution of the absorbance solutions. An estimate of the quantum yield of the dyes relative to fluorescein or sulforhodamine 101 was obtained by integrating the emission spectrum of the dye excited at the same optical density as the standard.

[2] = absorption spectra (maxima and extinction coefficients) of benzo[c]xanthene dyes; assay type: physicochemical; conditions: for ABSORPTION, ACID MAXIMA (second) / EXTINCTION COEFFICIENT, ACID MAXIMA (second) / ABSORPTION, ACID MAXIMA (first) / EXTINCTION COEFFICIENT, ACID MAXIMA (first): acid form; for ABSORPTION, ACID MAXIMA (second) / EXTINCTION COEFFICIENT, ACID MAXIMA (second): longer-wavelength maximum; for ABSORPTION, ACID MAXIMA (first) / EXTINCTION COEFFICIENT, ACID MAXIMA (first): shorter-wavelength maximum; for ABSORPTION, BASE MAXIMUM / EXTINCTION COEFFICIENT, BASE MAXIMUM: base form
Protocol: (§1) A stock solution was prepared by dissolving 7.6 mg of compound 3 in 2.00 ml methanol. The stock solution was diluted ten-fold into 40 mM pH 9.00 potassium phosphate buffer. Absorbance solutions were prepared by further diluting 25 μl of the aqueous stock solution to 2.025 ml with 40 mM potassium phosphate buffers of the appropriate pH.

[3] = physchem; conditions: 40 mm potassium phosphate buffer
Protocol: as §1

[4] = determination of the pKa for the benzo[c]xanthene indicators from plot of absorbance ratios versus pH; conditions: 40 mM potassium phosphate buffers
Protocol: as §1

[5] = test system: cells; conditions: cited from earlier work
[6] = potassium phosphate buffer, pH 7.0

Compound: CCN(CC)c1ccc2c(c1)Oc1c(ccc3cc(O)ccc13)C21OC(=O)c2ccccc21 (centres unmarked) [Compound 6]
- FLUORESCENCE, ACID EMIT [1]: 583 NM
- FLUORESCENCE, ACID EXCITE [1]: 557 NM
- FLUORESCENCE, BASE EMIT [1]: 632 NM
- FLUORESCENCE, BASE EXCITE [1]: 582 NM
- APPROX. QY. (quantum yield) [1]: ~0.23
- ABSORPTION, ACID MAXIMA (second) [2]: 550 NM
- EXTINCTION COEFFICIENT, ACID MAXIMA (second) [2]: 24.4 10^3 cm^-1 M^-1
- ABSORPTION, ACID MAXIMA (first) [2]: 518 NM
- EXTINCTION COEFFICIENT, ACID MAXIMA (first) [2]: 20.5 10^3 cm^-1 M^-1
- ABSORPTION, BASE MAXIMUM [2]: 577 NM
- EXTINCTION COEFFICIENT, BASE MAXIMUM [2]: 46.4 10^3 cm^-1 M^-1
- pKa [3]: 7.5

Compound: CN(C)c1ccc2c(c1)Oc1c(ccc3cc(O)ccc13)C21OC(=O)c2ccccc21 (centres unmarked) [Compound 5]
- FLUORESCENCE, ACID EMIT [1]: 585 NM
- FLUORESCENCE, ACID EXCITE [1]: 549 NM
- FLUORESCENCE, BASE EMIT [1]: 632 NM
- FLUORESCENCE, BASE EXCITE [1]: 582 NM
- APPROX. QY. (quantum yield) [1]: ~0.19
- ABSORPTION, ACID MAXIMA (second) [2]: 544 NM
- EXTINCTION COEFFICIENT, ACID MAXIMA (second) [2]: 21.6 10^3 cm^-1 M^-1
- ABSORPTION, ACID MAXIMA (first) [2]: 515 NM
- EXTINCTION COEFFICIENT, ACID MAXIMA (first) [2]: 17.7 10^3 cm^-1 M^-1
- ABSORPTION, BASE MAXIMUM [2]: 573 NM
- EXTINCTION COEFFICIENT, BASE MAXIMUM [2]: 44.1 10^3 cm^-1 M^-1
- pKa [3]: 7.6

Compound: 5'-(and-6')-carboxy-3,10-dihydroxy-spiro[7H-benzo[c]xanthene-7,1'(3'H)-isobenzofuran]-3'-one [Compound 2]
- FLUORESCENCE, ACID EMIT [1]: 543 NM
- FLUORESCENCE, ACID EXCITE [1]: 514 NM
- FLUORESCENCE, BASE EMIT [1]: 623 NM
- FLUORESCENCE, BASE EXCITE [1]: 543 NM
- APPROX. QY. (quantum yield) [1]: ~0.35
- ABSORPTION, ACID MAXIMA (second) [2]: 508 NM
- EXTINCTION COEFFICIENT, ACID MAXIMA (second) [2]: 28.5 10^3 cm^-1 M^-1
- ABSORPTION, ACID MAXIMA (first) [2]: 479 NM
- EXTINCTION COEFFICIENT, ACID MAXIMA (first) [2]: 22.8 10^3 cm^-1 M^-1
- ABSORPTION, BASE MAXIMUM [2]: 537 NM
- EXTINCTION COEFFICIENT, BASE MAXIMUM [2]: 44.4 10^3 cm^-1 M^-1
- pKa [4]: 7.80

Compound: O=C(O)c1ccc2c(c1)C1(OC2=O)c2cc(Cl)c(O)cc2Oc2c1ccc1cc(O)ccc21 (centres unmarked) [Compound 3]
- FLUORESCENCE, ACID EMIT [1]: 546 NM
- FLUORESCENCE, ACID EXCITE [1]: 517 NM
- FLUORESCENCE, BASE EMIT [1]: 630 NM
- FLUORESCENCE, BASE EXCITE [1]: 552 NM
- APPROX. QY. (quantum yield) [1]: ~0.48
- ABSORPTION, ACID MAXIMA (second) [2]: 514 NM
- EXTINCTION COEFFICIENT, ACID MAXIMA (second) [2]: 25.3 10^3 cm^-1 M^-1
- ABSORPTION, ACID MAXIMA (first) [2]: 485 NM
- EXTINCTION COEFFICIENT, ACID MAXIMA (first) [2]: 20.5 10^3 cm^-1 M^-1
- ABSORPTION, BASE MAXIMUM [2]: 547 NM
- EXTINCTION COEFFICIENT, BASE MAXIMUM [2]: 40.4 10^3 cm^-1 M^-1
- pKa [3]: 7.65

Compound: CCNc1cc2c(cc1C)C1(OC(=O)c3ccccc31)c1ccc3cc(O)ccc3c1O2 (centres unmarked) [Compound 7]
- FLUORESCENCE, ACID EMIT [1]: 552 NM
- FLUORESCENCE, ACID EXCITE [1]: 525 NM
- FLUORESCENCE, BASE EMIT [1]: 629 NM
- FLUORESCENCE, BASE EXCITE [1]: 558 NM
- APPROX. QY. (quantum yield) [1]: ~0.38
- ABSORPTION, ACID MAXIMA (second) [2]: 522 NM
- ABSORPTION, ACID MAXIMA (first) [2]: 495 NM
- ABSORPTION, BASE MAXIMUM [2]: 552 NM
- pKa [3]: 7.7

Compound: O=C1OC2(c3ccc(O)cc3Oc3c2ccc2cc(O)ccc32)c2ccccc21 (centres unmarked) [Compound 1, 3,10-dihydroxy-spiro[7H-benzo[c]xanthen-7,1'(3'H)-isobenzofuran]-3'-one]
- FLUORESCENCE, ACID EMIT [1]: 539 NM
- FLUORESCENCE, ACID EXCITE [1]: 513 NM
- FLUORESCENCE, BASE EMIT [1]: 618 NM
- FLUORESCENCE, BASE EXCITE [1]: 540 NM
- APPROX. QY. (quantum yield) [1]: ~0.34
- EXTINCTION COEFFICIENT, ACID MAXIMA (second) [2]: 28.2 10^3 cm^-1 M^-1
- ABSORPTION, ACID MAXIMA (first) [2]: 480 NM
- EXTINCTION COEFFICIENT, ACID MAXIMA (first) [2]: 24.8 10^3 cm^-1 M^-1
- ABSORPTION, BASE MAXIMUM [2]: 537 NM
- EXTINCTION COEFFICIENT, BASE MAXIMUM [2]: 49.7 10^3 cm^-1 M^-1
- pKa [3]: 7.85

Compound: CN(C)c1ccc2c(c1)Oc1c(ccc3cc(O)ccc13)C21OC(=O)c2cc(C(=O)O)ccc21 (centres unmarked) [Compound 8, 5'-carboxy-10-dimethylamino-3-hydroxy-spiro[7H-benzo[c]xanthene-7,1'(3'H)-isobenzofuran]-3'-one]
- FLUORESCENCE, ACID EMIT [1]: 587 NM
- FLUORESCENCE, ACID EXCITE [1]: 556 NM
- FLUORESCENCE, BASE EMIT [1]: 636 NM
- FLUORESCENCE, BASE EXCITE [1]: 581 NM
- APPROX. QY. (quantum yield) [1]: ~0.20
- ABSORPTION, ACID MAXIMA (second) [2]: 548 NM
- EXTINCTION COEFFICIENT, ACID MAXIMA (second) [2]: 25.7 10^3 cm^-1 M^-1
- ABSORPTION, ACID MAXIMA (first) [2]: 518 NM
- EXTINCTION COEFFICIENT, ACID MAXIMA (first) [2]: 23.2 10^3 cm^-1 M^-1
- ABSORPTION, BASE MAXIMUM [2]: 574 NM
- EXTINCTION COEFFICIENT, BASE MAXIMUM [2]: 44.9 10^3 cm^-1 M^-1
- pKa [3]: 7.5

Compound: CC(=O)Oc1ccc2c3c(ccc2c1)C1(OC(=O)c2cc(C(=O)O)ccc21)c1ccc(N(C)C)cc1O3 (centres unmarked) [Compound 14, 3-acetoxy-5'-carboxy-10-dimethylamino-spiro[7H-benzo[c]xanthene-7,1'(3'H)-isobenzofuran]-3'-one]
- Absorbance maximum (first) [2, 6]: 511 nm
- Absorbance maximum (second) [2, 6]: 540 nm
- extinction coefficient (first maximum) [2, 6]: 24,100 cm^-1 M^-1
- extinction coefficient (second maximum) [2, 6]: 21,700 cm^-1 M^-1

Compound: N#Cc1c(O)ccc(O)c1C#N [Dihydroxyphthalonitrile]
- membrane permeability [5]: high membrane permeability
- retention by cells ([5]; due to its high membrane permeability): not well retained by cells

Compound: CCN(CC)c1ccc2c(c1)Oc1c(ccc3cc(O)ccc13)C21OC(=O)c2ccc(C(=O)O)cc21 (centres unmarked) [Compound 9]
- FLUORESCENCE, ACID EMIT [1]: 583 NM
- FLUORESCENCE, ACID EXCITE [1]: 558 NM
- FLUORESCENCE, BASE EMIT [1]: 633 NM
- FLUORESCENCE, BASE EXCITE [1]: 582 NM
- APPROX. QY. (quantum yield) [1]: ~0.24
- ABSORPTION, ACID MAXIMA (second) [2]: 550 NM
- EXTINCTION COEFFICIENT, ACID MAXIMA (second) [2]: 29.7 10^3 cm^-1 M^-1
- ABSORPTION, ACID MAXIMA (first) [2]: 517 NM
- EXTINCTION COEFFICIENT, ACID MAXIMA (first) [2]: 26.2 10^3 cm^-1 M^-1
- ABSORPTION, BASE MAXIMUM [2]: 577 NM
- EXTINCTION COEFFICIENT, BASE MAXIMUM [2]: 51.5 10^3 cm^-1 M^-1
- pKa [3]: 7.75

Compound: O=C(O)c1ccc2c(c1)C(=O)OC21c2cc3c4c(c2Oc2c1ccc1cc(O)ccc21)CCCN4CCC3 (centres unmarked) [Compound 11, [h,i]julolidino-spiro[7H-benzo[c]xanthen-7,1'(3'H)-isobenzofuran]-3'-one]
- FLUORESCENCE, ACID EMIT [1]: 599 NM
- FLUORESCENCE, ACID EXCITE [1]: 530 NM
- FLUORESCENCE, BASE EMIT [1]: 630 NM
- FLUORESCENCE, BASE EXCITE [1]: 590 NM
- APPROX. QY. (quantum yield) [1]: ~0.35
- ABSORPTION, ACID MAXIMA (second) [2]: 569 NM
- EXTINCTION COEFFICIENT, ACID MAXIMA (second) [2]: 19.4 10^3 cm^-1 M^-1
- ABSORPTION, ACID MAXIMA (first) [2]: 529 NM
- EXTINCTION COEFFICIENT, ACID MAXIMA (first) [2]: 22.2 10^3 cm^-1 M^-1
- ABSORPTION, BASE MAXIMUM [2]: 587 NM
- EXTINCTION COEFFICIENT, BASE MAXIMUM [2]: 38.7 10^3 cm^-1 M^-1
- pKa [3]: 7.9
